In brackets after ≈: the same amount, converted by molar mass. Blank lines part the entries; values can stand above or below the molecule they belong to.
Experiments:
Test in all cases: ≥ marks a high value that may be exact or a test limit, other limits are often not marked, values filed in µg/mL are converted to µM
[1] = system: Xanthomonas campestris pv. Vesicatoria 2133-2
[2] = system: Pseudomonas syringae pv. syringae EPS 94
[3] = system: Erwinia amylovora PMV 6076
Pseudomonas aeruginosa = system: Pseudomonas aeruginosa
Escherichia coli ML-35p = system: Escherichia coli ML-35p
[4] = system: Klebsiella pneumoniae ATCC 13883
[5] = system: Candida albicans ATCC 2002
Enterobacter cloacae = system: Enterobacter cloacae
[6] = system: Haemophilus influenzae ATCC 49247
[7] = system: Haemophilus influenzae ATCC 49766
[8] = system: Pseudomonas aeruginosa 447
[9] = system: Escherichia coli ATCC 25922
[10] = system: Pseudomonas aeruginosa PAO1
[11] = system: Enterobacter cloacae ATCC 13047
Escherichia coli = system: Escherichia coli
[12] = system: Klebsiella pneumoniae ATCC 700603
Candida albicans = system: Candida albicans
Klebsiella aerogenes = system: Klebsiella aerogenes
[13] = system: Staphylococcus aureus ATCC 25923
[14] = system: Staphylococcus aureus ATCC 43300
[15] = system: Pseudomonas aeruginosa ATCC 27853
[16] = system: Enterococcus faecalis ATCC 29212
Staphylococcus aureus = system: Staphylococcus aureus
[17] = system: Staphylococcus aureus ATCC 33591
[18] = system: Staphylococcus epidermidis ATCC 35984
[19] = system: Xanthomonas axonopodis pv. glycines ISBF 327
[20] = system: Staphylococcus aureus ATCC 29313
Aspergillus niger = system: Aspergillus niger
[21] = system: Klebsiella pneumoniae PTCC 4231
Aspergillus fumigatus = system: Aspergillus fumigatus
[22] = system: Bacillus cereus PTCC 1435
[23] = system: Escherichia coli PTCC 2433
[24] = system: Leuconostoc mesenteroides PTCC 1445
[25] = system: Bacillus subtilis PTCC 4533
[26] = system: Pseudomonas aeruginosa PTCC 2834

SMILES: CC[C@H](C)[C@H](NC(=O)[C@H](CCCCN)NC(=O)[C@H](CCCCN)NC(=O)[C@H](Cc1ccccc1)NC(=O)[C@H](CC(C)C)NC(=O)[C@H](CCCCN)NC(=O)[C@H](CCCCN)NC(=O)[C@H](C)NC(=O)[C@@H]1CCCN1C(=O)CNC(=O)[C@H](C)NC(=O)[C@H](CC(C)C)NC(=O)[C@H](Cc1ccc(O)cc1)NC(=O)[C@H](CCCCN)NC(=O)[C@H](CC(C)C)NC(=O)[C@@H](NC(=O)[C@H](CCCCN)NC(=O)[C@H](CCCCN)NC(=O)[C@H](Cc1ccccc1)NC(=O)[C@H](CC(C)C)NC(=O)[C@H](CCCCN)NC(=O)[C@H](CCCCN)NC(=O)CN)[C@@H](C)CC)C(=O)N[C@@H](CC(C)C)C(=O)N[C@@H](CCCCN)C(=O)N[C@@H](Cc1ccc(O)cc1)C(=O)N[C@@H](CC(C)C)C(=O)O [GKKLFKKILKYLAGPAKKLFKKILKYL]
MIC [1]: 14.1 µM (≈ 45 µg/mL)
MIC [2]: 8.66 µM (≈ 27.5 µg/mL)
MIC [3]: 14.1 µM (≈ 45 µg/mL)

SMILES: CC[C@H](C)[C@H](NC(=O)[C@@H](NC(=O)[C@H](CCCN=C(N)N)NC(=O)[C@@H]1CCCN1C(=O)[C@H](CCCCN)NC(=O)[C@H](CCCCN)NC(=O)[C@H](Cc1ccccc1)NC(=O)[C@H](Cc1ccccc1)NC(=O)[C@H](CCCCN)NC(=O)[C@H](CCCCN)NC(=O)[C@H](C)NC(=O)[C@H](CCCN=C(N)N)NC(=O)[C@H](CCCCN)NC(=O)[C@H](CCCCN)NC(=O)[C@@H](NC(=O)[C@H](CO)NC(=O)[C@H](CC(N)=O)NC(=O)[C@H](CCCCN)NC(=O)[C@H](CC(C)C)NC(=O)[C@H](CCCCN)NC(=O)[C@H](CCCCN)NC(=O)[C@H](Cc1ccccc1)NC(=O)[C@H](Cc1ccccc1)NC(=O)[C@@H](N)CCCCN)C(C)C)C(C)C)C(=O)NCC(=O)N[C@H](C(=O)N[C@@H](CO)C(=O)N[C@H](C(=O)N1CCC[C@H]1C(=O)N[C@@H](Cc1ccccc1)C(=O)O)[C@@H](C)CC)C(C)C [KFFKKLKNSVKKRAKKFFKKPRVIGVSIPF]
MIC (Pseudomonas aeruginosa): 3.48 µM (≈ 12.5 µg/mL)
MIC (Escherichia coli ML-35p): 0.869 µM (≈ 3.13 µg/mL)
MIC [4]: 1.74 µM (≈ 6.25 µg/mL)
MIC [5]: ≥ 55.6 µM
MIC (Enterobacter cloacae): 0.869 µM (≈ 3.13 µg/mL)
MIC [6]: 0.869 µM (≈ 3.13 µg/mL)
MIC [7]: 0.869 µM (≈ 3.13 µg/mL)
MIC [8]: 1.74 µM (≈ 6.25 µg/mL)
MIC [9]: 1.74 µM (≈ 6.25 µg/mL)
MIC [10]: 1.74 µM (≈ 6.25 µg/mL)
MIC [11]: 6.95 µM (≈ 25 µg/mL)
MIC (Escherichia coli): 1.74 µM (≈ 6.25 µg/mL)
MIC [12]: 0.869 µM (≈ 3.13 µg/mL)
MIC (Candida albicans): > 55.6 µM
MIC (Klebsiella aerogenes): 1.74 µM (≈ 6.25 µg/mL)
MIC [13]: 0.869 µM (≈ 3.13 µg/mL)
MIC [14]: 1.74 µM (≈ 6.25 µg/mL)
MIC [15]: 1.74 µM (≈ 6.25 µg/mL)
MIC [16]: 6.95 µM (≈ 25 µg/mL)
MIC (Staphylococcus aureus): 1.74 µM (≈ 6.25 µg/mL)

SMILES: CC[C@H](C)[C@H](NC(=O)[C@H](C)NC(=O)[C@H](C)NC(=O)[C@H](C)NC(=O)[C@H](C)NC(=O)[C@H](C)NC(=O)[C@H](C)NC(=O)[C@H](C)N)C(=O)N[C@@H](CCCCN)C(=O)N[C@@H](CCSC)C(=O)N[C@@H](CC(C)C)C(=O)N[C@@H](CCSC)C(=O)N[C@@H](CC(=O)O)C(=O)N[C@@H](CC(C)C)C(=O)N[C@H](C(=O)N[C@@H](CC(N)=O)C(=O)N[C@@H](CCC(=O)O)C(=O)N[C@@H](CCCN=C(N)N)C(=O)N[C@H](C(=O)N[C@@H](CCSC)C(=O)N[C@@H](C)C(=O)N[C@@H](CC(C)C)C(=O)N[C@@H](CC(N)=O)C(=O)N[C@@H](CCCCN)C(=O)N[C@@H](CCCCN)C(=O)N[C@@H](C)C(=O)N[C@@H](CCCCN)C(=O)N[C@@H](CCCCN)C(N)=O)[C@@H](C)CC)C(C)C [AAAAAAAIKMLMDLVNERIMALNKKAKK]
MIC [9]: 10 µM (≈ 29.8 µg/mL)
MIC [19]: 1 µM (≈ 2.98 µg/mL)
MIC [15]: 20 µM (≈ 59.7 µg/mL)
MIC [20]: 20 µM (≈ 59.7 µg/mL)

The next lines start with the values.

MIC [17]: ≥ 182 µM
MIC [13]: 182 µM (≈ 256 µg/mL)
MIC [15]: 16.1 µM (≈ 22.6 µg/mL)
MIC [18]: ≥ 64.3 µM
SMILES: CC[C@H](C)[C@H](NC(=O)[C@H](CCCCN)NC(=O)[C@@H](NC(=O)[C@H](Cc1ccccc1)NC(=O)[C@H](C)NC(=O)[C@H](CCCCN)NC(=O)CNC(=O)[C@H](Cc1ccccc1)NC(=O)[C@H](CCCCN)NC(=O)[C@@H](N)CCCCN)C(C)C)C(=O)N[C@@H](CC(C)C)C(=O)N[C@@H](CCCCN)C(N)=O [KKFGKAFVKILK]

MIC (Aspergillus niger): 15.2 µM (≈ 24.6 µg/mL)
MIC [21]: 16.5 µM (≈ 26.7 µg/mL)
MIC (Aspergillus fumigatus): 11.9 µM (≈ 19.3 µg/mL)
MIC [22]: 9.33 µM (≈ 15.1 µg/mL)
MIC [23]: 17.5 µM (≈ 28.3 µg/mL)
MIC [24]: 12.2 µM (≈ 19.8 µg/mL)
MIC [25]: 10.9 µM (≈ 17.6 µg/mL)
MIC (Candida albicans): 12.6 µM (≈ 20.4 µg/mL)
MIC [26]: 15 µM (≈ 24.2 µg/mL)
SMILES: CC[C@H](C)[C@H](NC(=O)[C@H](CO)NC(=O)[C@H](CCCCN)NC(=O)[C@H](CC(C)C)NC(=O)[C@H](CCCN=C(N)N)NC(=O)[C@@H](N)CC(C)C)C(=O)N[C@H](C(=O)N[C@@H](CO)C(=O)N[C@@H](Cc1ccc(O)cc1)C(=O)N[C@@H](C)C(=O)N[C@@H](CCCCN)C(=O)N[C@@H](CCCCN)C(=O)N[C@H](C(=O)N[C@@H](CC(C)C)C(=O)O)C(C)C)C(C)C [LRLKSIVSYAKKVL]

Reference: DBAASP
